Test results reported in patent US12533348B2, “Ferroportin-inhibitors for the use in the treatment of transfusion-dependent beta-thalassemia (TDT)” (Vifor (International) AG, priority 2019, dated 2026).
Entries after “also recorded” stand apart in the source; their conditions may differ.

Experiments:
Hbb^th3/+ mice = assay: NTBI in plasma after blood transfusion (BT) in Hbb^th3/+ mice (Fe-NTA colorimetric assay); type: in vivo, mouse; conditions: single oral dose 120 mg/kg 30 min before BT, 3 h post BT (FIG. 13)
Description: In order to establish the kinetics of NTBI generation in Hbb th3/+ mice (B6.129P2-Hbb-b1tm1Unc Hbb-b2tm1Unc/J, #002683) following blood transfusion (BT) pilot experiments were performed. The wild-type (We) littermates of Hbbth3/+ were used as blood donors for transfusions. Peripheral blood was collected from terminally anesthetized WT mice via retro-orbital route from 3-5 female mice and seven parts of blood were mixed with one part of 14% citrate-phosphate-dextrose adenine and stored at 4° C. until the transfusion (24 h or 15 days). The donor blood was pre-warmed to 37° C. prior to the transfusion. […]
NTBI was measured in murine plasma samples by a Fe-Nitrilotriacetate (NTA)-based assay, adapted from a protocol published by Gosriwatana I et al. 1999 (Quantification of non-transferrin-bound iron in the presence of unsaturated transferrin. Gosriwatana I, Loreal O. Lu S, Brissot P, Porter J, Hider R C. Quantification of non-transferrin-bound iron in the presence of unsaturated transferrin. Anal Biochem. 1999 Sep. 10; 273(2):212-20. First, a solution of 800 mM Nitrilotriacetate acid (NTA) trisodium (Sigma, 72565) and a solution of 800 mM NTA disodium (Sigma, N0128) were prepared and then mixed together to obtain a solution at pH 7.0. […] After 30 minutes of incubation at room temperature, samples were measured in a plate reader (Biotec) at 537 nm.

C57BL/6 WT mice = assay: Serum iron in C57BL/6 WT mice (previous study); type: in vivo, mouse; conditions: C57BL/6 WT mice dosed with 120 mg/kg for 20 h

For `O=C(NCc1ncccc1F)c1coc(CCNCCc2nc3ccccc3[nH]2)n1` [Fpn127], the “NTBI in plasma after blood transfusion” value (Hbb^th3/+ mice) was “prevents release; also recorded: prevented the increase of NTBI” and the “serum iron in WT mice” value (C57BL/6 WT mice) was “restored to the baseline levels”.
